Test results reported in PubChem BioAssay AID330 (DTP/NCI, 2004).
Values joined by “and” are separate entries in the source; they are usually repeats but may differ in a detail not shown here. Equal entries are not always repeated. Inconclusive results and toxic doses are left out. How the source made its calls: active means survival T/C of 150% or more; inactive means T/C below 125% in these data.

System: P388 leukemia ip, CD2F1 mice, survival T/C
Assay: NCI In Vivo Anticancer Drug Screen. Data for tumor model P388 Leukemia (intraperitoneal) in CD2F1 (CDF1) mice
Details: endpoint: median survival time, higher = longer survival
How it was run: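 Mice carrying the transplanted tumor received test compound or vehicle. Survival was recorded in each group, and the value is the treated-group measurement divided by that of the vehicle-treated control group.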

[1] = dose: 50.0 mg/kg/injection, schedule: Q01DX009 (ip), vehicle: Klucel (hydroxypropylcellulose) (HPC)
[2] = dose: 100.0 mg/kg/injection, schedule: Q01DX009 (ip), vehicle: Klucel (hydroxypropylcellulose) (HPC)
[3] = dose: 200.0 mg/kg/injection, schedule: Q01DX009 (ip), vehicle: Klucel (hydroxypropylcellulose) (HPC)

Measured: T/C

CC(C)=COS(=O)(=O)C(F)(F)F
inactive: dose: 50.0 mg/kg/injection, schedule: Q01DX009 (ip), vehicle: olive oil, sesame oil, peanut oil 99 % of control | dose: 100.0 mg/kg/injection, schedule: Q01DX009 (ip), vehicle: olive oil, sesame oil, peanut oil 96 % of control | dose: 200.0 mg/kg/injection, schedule: Q01DX009 (ip), vehicle: olive oil, sesame oil, peanut oil 90 % of control

Nc1nc2ncc(CN(C(=O)CCl)c3ccc(C(=O)NC(CCC(=O)O)C(=O)O)cc3)nc2c(=O)[nH]1 (stereo unspecified)
inactive: [1] 95 % of control | [2] 107 % of control | [3] 108 % of control

CC(=O)N(C)C(C(=O)N1CC(C)CC1C(=O)N(C)C1C(=O)NC(CC(C)C)C(=O)N2CC(C)CC2C(=O)NC(CC(C)C)C(=O)N(C)C(C(C)C)C(=O)N2CCCC2C(=O)N(C)C(CC(C)C)C(=O)NCC(=O)OC1C)C(C)C (stereo unspecified)
inactive: dose: 3.12 mg/kg/injection, schedule: Q01DX009 (ip), vehicle: Klucel (hydroxypropylcellulose) (HPC) 103 % of control | dose: 6.25 mg/kg/injection, schedule: Q01DX009 (ip), vehicle: Klucel (hydroxypropylcellulose) (HPC) 97 % of control | dose: 12.5 mg/kg/injection, schedule: Q01DX009 (ip), vehicle: Klucel (hydroxypropylcellulose) (HPC) 100 % of control | dose: 18.75 mg/kg/injection, schedule: Q01DX009 (ip), vehicle: Klucel (hydroxypropylcellulose) (HPC) 93 % of control | dose: 25.0 mg/kg/injection, schedule: Q01DX009 (ip), vehicle: Klucel (hydroxypropylcellulose) (HPC) 93 % of control

CCOC(=O)c1ccc(NC(=O)SC2=NCCS2)cc1
inactive: [1] 101 % of control | [2] 103 % of control

O=C(O)/C(=C/c1ccc(/C=C(/C(=O)O)c2ccccc2)o1)c1ccccc1
inactive: dose: 100.0 mg/kg/injection, schedule: Q01DX001 (ip), vehicle: saline with Tween-80 101 % of control | dose: 200.0 mg/kg/injection, schedule: Q01DX001 (ip), vehicle: saline with Tween-80 97 % of control | dose: 400.0 mg/kg/injection, schedule: Q01DX001 (ip), vehicle: saline with Tween-80 101 % of control

O=S1(=O)CCN(CCCc2ccccc2)CC1
inactive: [1] 102 % of control | [2] 105 % of control | [3] 104 % of control

COc1cc2c(cc1OC)C(CCN1C(=O)CCC1=O)=NCC2
inactive: dose: 50.0 mg/kg/injection, schedule: Q01DX009 (ip), vehicle: saline sonified 100 % of control | dose: 100.0 mg/kg/injection, schedule: Q01DX009 (ip), vehicle: saline sonified 100 % of control | dose: 200.0 mg/kg/injection, schedule: Q01DX009 (ip), vehicle: saline sonified 95 % of control

COc1ccc2c(c1)nc(/C(C(=O)C(=O)c1ccccc1)=C(\O)c1ccccc1)c(C)[n+]2[O-]
inactive: dose: 60.0 mg/kg/injection, schedule: Q01DX005 (ip), vehicle: saline 103 % of control | dose: 120.0 mg/kg/injection, schedule: Q01DX005 (ip), vehicle: saline 104 % of control | dose: 240.0 mg/kg/injection, schedule: Q01DX005 (ip), vehicle: saline 100 % of control

[CH3][Sn]([CH3])([Br])[Br].c1ccc(-c2nnc(-c3ccccn3)nc2-c2ccccc2)cc1
inactive: dose: 30.0 mg/kg/injection, schedule: Q01DX005 (ip), vehicle: Klucel (hydroxypropylcellulose) (HPC) 107 % of control | dose: 60.0 mg/kg/injection, schedule: Q01DX005 (ip), vehicle: Klucel (hydroxypropylcellulose) (HPC) 113 % of control and 95 % of control | dose: 120.0 mg/kg/injection, schedule: Q01DX005 (ip), vehicle: Klucel (hydroxypropylcellulose) (HPC) 100 % of control and 106 % of control

COc1ccc2c(c1OC)C(=O)O[C@@H]2[C@H]1c2cc3c(cc2CCN1C)OCO3
inactive: dose: 10.0 mg/kg/injection, schedule: Q01DX009 (ip), vehicle: saline 108 % of control | dose: 20.0 mg/kg/injection, schedule: Q01DX009 (ip), vehicle: saline 114 % of control | dose: 40.0 mg/kg/injection, schedule: Q01DX009 (ip), vehicle: saline 108 % of control | dose: 80.0 mg/kg/injection, schedule: Q01DX009 (ip), vehicle: saline 99 % of control

CCOC1CN(C(=O)ON)N1C(=O)ON (stereo unspecified)
inactive: dose: 50.0 mg/kg/injection, schedule: Q01DX009 (ip), vehicle: saline 109 % of control | dose: 100.0 mg/kg/injection, schedule: Q01DX009 (ip), vehicle: saline 107 % of control | dose: 200.0 mg/kg/injection, schedule: Q01DX009 (ip), vehicle: saline 89 % of control

COc1cc2cc(c1Cl)N(C)C(=O)CC(OC(=O)CC(C)C)C1(C)OC1C(C)C1CC(O)(NC(=O)O1)C(OC)/C=C/C=C(C)C2 (stereo unspecified)
inactive: dose: 6.2 micrograms/kg/injection, schedule: Q01DX009 (ip), vehicle: saline + alcohol 113 % of control | dose: 6.25 micrograms/kg/injection, schedule: Q01DX009 (ip), vehicle: saline + alcohol 111 % of control and 120 % of control | dose: 100.0 micrograms/kg/injection, schedule: Q01DX009 (ip), vehicle: saline + alcohol 106 % of control

COc1ccc(/C=C\Cc2cc3c(cc2OCCO)OCO3)cc1
inactive: dose: 60.0 mg/kg/injection, schedule: Q01DX005 (ip), vehicle: saline with Tween-80 101 % of control | dose: 120.0 mg/kg/injection, schedule: Q01DX005 (ip), vehicle: saline with Tween-80 94 % of control | dose: 240.0 mg/kg/injection, schedule: Q01DX005 (ip), vehicle: saline with Tween-80 98 % of control
